# Assay results as given in patent US20220289685A1, “ANTIMALARIAL HEXAHYDROPYRIMIDINE ANALOGUES” (UCB BIOPHARMA SRL, priority 2019, published 2022).
# pIC50: −log10 of the molar value. Counter-ions that a name gives are not always drawn.
# Tested on: Plasmodium falciparum 3D7 strain
# Experiment: P. falciparum 3D7 asexual blood stage assay (SYBR green readout)
# Format: cell-based
# Conditions: Plasmodium falciparum, 3D7, Erythrocyte, 72 h
# Method: Asexual Blood Stage Assay
# The assay used to measure the effect of test compounds on a bloodstream stage of Plasmodium falciparum: 3D7 strain employs SYBR green as the readout. This is a dye that binds to double stranded deoxyribonucleic acid (DNA) with a resulting increase in fluorescence, allowing detection of P. falciparum DNA in infected erythrocytes, and thereby providing a measure of parasite growth and propagation.
# P. falciparum Culture Maintenance
# Erythrocytes (A+ blood) were prepared for both parasite culture and assay by washing 4 times with incomplete media (15.9 g RPMI 1640 (25 mM HEPES, L-glutamine), 1 g NaHCO3, 2 g glucose, 400 μL gentacin (500 mg/mL), 2 mL hypoxanthine solution (13.6 g/L in 0.1M NaOH pH 7.3) in 1 litre of media). The cells were centrifuged at 1800 g for 5 minutes, before decanting the supernatant and re-suspending in fresh incomplete media. On the final wash, the cells were re-suspended in complete media (incomplete media with 5 g/L AlbumaxII), and centrifuged at 1800 g for 3 minutes. This cell sediment was treated as 100% haematocrit.
# P. falciparum 3D7 was cultured in erythrocytes at 5% haematocrit in complete media at 37° C. (1% O2, 3% CO2, balance N2). Cultures were split on a weekly basis to achieve a 1% parasitaemia in erythrocites at 5% haematocrit in fresh media. Culture media is replaced by fresh media every other day (2 times during the week).
# On day 1, test compounds were added to assay plates using Echo dispensing technology ([…] and 20 points titration). 50 nL of each compound dilution was added to 50 μL of culture (5% haematocrit, 0.5% parasitaemia) and incubated for 72 h at 37° C. (1% O2, 3% CO2, balance N2). Final concentrations of test compounds ranged from 50,000 nM to 15 nM, in […].
# On day 4, 10 μL SYBR green (Invitrogen S7563 supplied as 10,000× concentrate in DMSO) pre-diluted to 3× concentrate with Lysis buffer (20 mM Tris pH 7.9, 5% EDTA, 0.16% w/v, 1.6% TX100 v/v) was added to the cultures and incubated in the dark, overnight, at room temperature.
# On day 5, fluorescent signal was measured using a BioTek plate reader (excitation 485 nm, emission 528 nm). All data were processed using IDBS ActivityBase. Raw data were converted into percent inhibition through linear regression by setting the high inhibition control (mefloquine) as 100% and the no inhibition control (DMSO) as 0%. Quality control criteria for passing plates were as follows: Z′>0.5, S:B>3, 30% CV(no inhibition control)<15. The formula used to calculate Z′ is: […]
# All EC50 curve fitting was undertaken using the following bi-phasic two site dose response using XLfit model 300 (IDBS):
# where A=100 minus the top of the upper curve 1 and the bottom of lower curve; B=Hill slope; log(C)=IC50 concentration at lower site; log(D)=IC50 concentration at upper site; x=inhibitor concentration; and y=% inhibition.
row,Structure (SMILES),pIC50
1,"C[C@@H]1C[C@H](N2C(=N)N[C@](C)(c3cccc(NC(=O)c4ccccc4S(C)(=O)=O)c3Cl)CC2=O)CCO1 (relative stereo) [Example 81, N-(2-Chloro-3-{(4S)-2-imino-4-methyl-1-[(2R*,4R*)-2-methyl-tetrahydropyran-4-yl]-6-oxo-hexahydropyrimidin-4-yl}phenyl)-2-(methylsulfonyl)benzamide trifluoroacetic acid salt]",6.74
2,"Cc1cc(C(=O)Nc2cccc([C@]3(C)CC(=O)N([C@@H]4CCO[C@H](C)C4)C(=N)N3)c2Cl)c2nccn2c1 (relative stereo) [Example 28, N-(2-Chloro-3-{(4S)-2-imino-4-methyl-1-[(2R*,4R*)-2-methyl-tetrahydropyran-4-yl]-6-oxo-hexahydropyrimidin-4-yl}phenyl)-6-methylimidazo[1,2-a]pyridine-8-carboxamide trifluoroacetic acid salt]",7.62
3,"C[C@@H]1C[C@H](N2C(=N)N[C@](C)(c3cccc(NC(=O)c4ccc(F)c(Cl)c4F)c3Cl)CC2=O)CCO1 (relative stereo) [Example 71, 3-Chloro-N-(2-chloro-3-{(4S)-2-imino-4-methyl-1-[(2R*,4R*)-2-methyltetrahydropyran-4-yl]-6-oxo-hexahydropyrimidin-4-yl}phenyl)-2,4-difluorobenzamide hydrochloride]",7.59
4,"Cc1nonc1C(=O)Nc1cccc([C@]2(C)CC(=O)N([C@@H]3CCO[C@H](C)C3)C(=N)N2)c1Cl (relative stereo) [Example 17, N-(2-Chloro-3-{(4S)-2-imino-4-methyl-1-[(2R*,4R*)-2-methyl-tetrahydropyran-4-yl]-6-oxo-hexahydropyrimidin-4-yl}phenyl)-4-methyl-1,2,5-oxadiazole-3-carboxamide hydrochloride]",7.92
5,"C[C@@H]1C[C@H](N2C(=N)N[C@](C)(c3cccc(NC(=O)c4ccn(C)n4)c3Cl)CC2=O)CCO1 (relative stereo) [Example 8, N-(2-Chloro-3-{(4S)-2-imino-4-methyl-1-[(2R*,4R*)-2-methyl-tetrahydropyran-4-yl]-6-oxo-hexahydropyrimidin-4-yl}phenyl)-1-methylpyrazole-3-carboxamide hydrochloride]",6.59
6,"COc1cncc(C(=O)Nc2cccc([C@]3(C)CC(=O)N([C@@H]4CCO[C@H](C)C4)C(=N)N3)c2Cl)n1 (relative stereo) [Example 68, N-(2-Chloro-3-{(4S)-2-imino-4-methyl-1-[(2R*,4R*)-2-methyl-tetrahydropyran-4-yl]-6-oxo-hexahydropyrimidin-4-yl}phenyl)-6-methoxypyrazine-2-carboxamide hydrochloride]",7.96
7,"C[C@@H]1C[C@H](N2C(=N)N[C@](C)(c3cccc(NC(=O)c4cc(C(F)(F)F)cnn4)c3Cl)CC2=O)CCO1 (relative stereo) [Example 55, N-(2-Chloro-3-{(4S)-2-imino-4-methyl-1-[(2R*,4R*)-2-methyl-tetrahydropyran-4-yl]-6-oxo-hexahydropyrimidin-4-yl}phenyl)-5-(trifluoromethyl)pyridazine-3-carboxamide hydrochloride]",7.28
8,"C[C@@H]1CC(N2C(=N)N[C@](C)(c3cccc(NC(=O)c4cc(Cl)ccc4OC(F)F)c3Cl)CC2=O)CCO1 (relative stereo) [Example 84, 5-Chloro-N-(2-chloro-3-{(4S)-2-imino-4-methyl-1-[(2R*,4R*)-2-methyltetrahydropyran-4-yl]-6-oxo-hexahydropyrimidin-4-yl]phenyl)-2-(difluoromethoxy)benzamide trifluoroacetic acid salt]",7.43
9,"C[C@@H]1C[C@H](N2C(=N)N[C@](C)(c3cccc(NC(=O)c4cncc(C5CC5)c4)c3Cl)CC2=O)CCO1 (relative stereo) [Example 104, N-(2-Chloro-3-{(4S)-2-imino-4-methyl-1-[(2R*,4R*)-2-methyl-tetrahydropyran-4-yl]-6-oxo-hexahydropyrimidin-4-yl}phenyl)-5-cyclopropylpyridine-3-carboxamide hydrochloride]",7.72
10,"C[C@@H]1C[C@H](N2C(=N)N[C@](C)(c3cccc(NC(=O)c4cccc(C#N)c4)c3Cl)CC2=O)CCC1(F)F (relative stereo) [Example 25, N-(2-Chloro-3-{(4S)-1-[(1R*,3R*)-4,4-difluoro-3-methylcyclohexyl]-2-imino-4-methyl-6-oxohexahydro-pyrimidin-4-yl]phenyl)-3-cyano-benzamide trifluoroacetic acid salt]",7.06
11,"C[C@@]1(c2cccc(NC(=O)c3cccc(C#N)c3)c2Cl)CC(=O)N(C2CCC(F)(F)CC2)C(=N)N1 [Example 23, N-{2-Chloro-3-[(4S)-1-(4,4-difluorocyclohexyl)-2-imino-4-methyl-6-oxohexahydropyrimidin-4-yl]phenyl}-3-cyanobenzamide hydrochloride]",7.17
12,"Cc1cn(-c2cccc(C(=O)Nc3cccc([C@]4(C)CC(=O)N([C@@H]5CCO[C@H](C)C5)C(=N)N4)c3Cl)c2)cn1 (relative stereo) [Example 110, N-(2-Chloro-3-{(4S)-2-imino-4-methyl-1-[(2R*,4R*)-2-methyl-tetrahydropyran-4-yl]-6-oxo-hexahydropyrimidin-4-yl}phenyl)-3-(4-methylimidazol-1-yl)-benzamide hydrochloride]",6.54
13,"C[C@@H]1C[C@H](N2C(=N)N[C@](C)(c3cccc(NC(=O)c4cnc5ccccc5n4)c3Cl)CC2=O)CCO1 (relative stereo) [Example 31, N-(2-Chloro-3-{(4S)-2-imino-4-methyl-1-[(2R*,4R*)-2-methyl-tetrahydropyran-4-yl]-6-oxo-hexahydropyrimidin-4-yl}phenyl)-quinoxaline-2-carboxamide trifluoroacetic acid salt]",7.89
14,"C[C@@H]1C[C@H](N2C(=N)N[C@](C)(c3cccc(NC(=O)c4ccc(C(F)(F)F)nc4)c3Cl)CC2=O)CCO1 (relative stereo) [Example 21, N-(2-Chloro-3-{(4S)-2-imino-4-methyl-1-[(2R*,4R*)-2-methyl-tetrahydropyran-4-yl]-6-oxo-hexahydropyrimidin-4-yl}phenyl)-6-(trifluoromethyl)pyridine-3-carboxamide hydrochloride]",6.64
15,"C[C@@H]1C[C@H](N2C(=N)N[C@](C)(c3cccc(NC(=O)c4ccncc4)c3Cl)CC2=O)CCO1 (relative stereo) [Example 5, N-(2-Chloro-3-{(4S)-2-imino-4-methyl-1-[(2R*,4R*)-2-methyl-tetrahydropyran-4-yl]-6-oxo-hexahydropyrimidin-4-yl]phenyl)-pyridine-4-carboxamide hydrochloride]",6.55
16,"C[C@@H]1C[C@H](N2C(=N)N[C@](C)(c3cccc(NC(=O)c4nc5ccccc5nc4C(F)(F)F)c3Cl)CC2=O)CCO1 (relative stereo) [Example 88, N-(2-Chloro-3-{(4S)-2-imino-4-methyl-1-[(2R*,4R*)-2-methyl-tetrahydropyran-4-yl]-6-oxo-hexahydropyrimidin-4-yl]phenyl)-3-(trifluoromethyl)quinoxaline-2-carboxamide trifluoroacetic acid salt]",7.34
17,"C[C@@H]1C[C@H](N2C(=N)N[C@](C)(c3cccc(NC(=O)c4cccnc4C(F)(F)F)c3Cl)CC2=O)CCO1 (relative stereo) [Example 61, N-(2-Chloro-3-{(4S)-2-imino-4-methyl-1-[(2R*,4R*)-2-methyl-tetrahydropyran-4-yl]-6-oxo-hexahydropyrimidin-4-yl}phenyl)-2-(trifluoromethyl)pyridine-3-carboxamide hydrochloride]",6.35
18,"C[C@@H]1C[C@H](N2C(=N)N[C@](C)(c3cccc(NC(=O)c4cccc(C#N)c4F)c3Cl)CC2=O)CCO1 (relative stereo) [Example 73, N-(2-Chloro-3-{(4S)-2-imino-4-methyl-1-[(2R*,4R*)-2-methyl-tetrahydropyran-4-yl]-6-oxo-hexahydropyrimidin-4-yl}phenyl)-3-cyano-2-fluorobenzamide hydrochloride]",8.22
